In brackets after ≈: the same amount, converted by molar mass.
What was measured:
B. cereus ATCC 11778 = assay: NCCLS broth microdilution MIC, B. cereus; type: cell-based, Bacillus cereus; details: organism A = B. cereus ATCC 11778; for MIC: Bacillus cereus, ATCC11778, read-out: Minimum Inhibitory Concentration (MIC)
Source text: (§1) Compounds according to this invention were screened for their in vitro activities against selected species of bacteria and fungi. […]

C. albicans ATCC 38247 = assay: Antifungal MIC, C. albicans; type: cell-based, Candida albicans; details: organism B = C. albicans ATCC 38247; for MIC: Candida albicans, ATCC38247, read-out: Minimum Inhibitory Concentration (MIC)
Source text: as §1

E. faecalis ATCC 29212 = assay: NCCLS broth microdilution MIC, E. faecalis; type: cell-based; details: organism C = E. faecalis ATCC 29212; for MIC: Enterococcus faecalis, ATCC29212, read-out: Minimum Inhibitory Concentration (MIC)
Source text: as §1

E. faecium ATCC 51559 = assay: NCCLS broth microdilution MIC, E. faecium (VRE); type: cell-based, Enterococcus faecium; details: organism D = E. faecium ATCC 51559 (VRE)
Source text: as §1

S. aureus ATCC 13709 = assay: NCCLS broth microdilution MIC, S. aureus (MSSA); type: cell-based, Staphylococcus aureus; details: organism E = S. aureus ATCC 13709 (MSSA); for MIC: Staphylococcus aureus, read-out: Minimum Inhibitory Concentration (MIC)
Source text: as §1

S. aureus ATCC 27660 = assay: NCCLS broth microdilution MIC, S. aureus (MRSA); type: cell-based, Staphylococcus aureus; details: organism F = S. aureus ATCC 27660 (MRSA)
Source text: as §1

[1] = system: S. epidermidis ATCC 12228; assay: NCCLS broth microdilution MIC, S. epidermidis; type: cell-based, Staphylococcus epidermidis; details: organism G = S. epidermidis ATCC 12228
Source text: as §1

S. pneumoniae ATCC 49619 = assay: NCCLS broth microdilution MIC, S. pneumoniae ATCC 49619; type: cell-based, Streptococcus pneumoniae; details: organism H = S. pneumoniae ATCC 49619; for MIC: Streptococcus pneumoniae, ATCC49619, read-out: Minimum Inhibitory Concentration (MIC)
Source text: as §1

S. pneumoniae ATCC 51422 = assay: NCCLS broth microdilution MIC, S. pneumoniae (PRSP); type: cell-based, Streptococcus pneumoniae; details: organism I = S. pneumoniae ATCC 51422 (PRSP)
Source text: as §1

[2] = target: target sequence AGTACT, 310 base pair dsDNA restriction fragment of Plasmid A; assay: Quantitative DNase I footprint titration, AGTACT; type: binding; details: 310 bp/A, pH 7.0, 22° C., read-out: Dissociation Constant Kd
[3] = target: target sequence AATTAATCAT, 352 base pair dsDNA restriction fragment of Plasmid B; assay: Quantitative DNase I footprint titration, […]; type: binding; details: 352 bp/B, pH 7.0, 22° C., read-out: Dissociation Constant Kd
[4] = target: target sequence ACAATTAAT, 352 bp fragment of Plasmid B; assay: Quantitative DNase I footprint titration, […]; type: binding; details: 352 bp/B, pH 7.0, 22° C., read-out: Dissociation Constant Kd
[5] = system: methicillin resistant Staphylococcus aureus ATCC 33591; assay: Murine neutropenic thigh model; type: in vivo; details: thigh at 6 hr, neutropenic CF1 mice
Description: The suspension was diluted 1:100 in phosphate buffered saline (pH 7.2) for a final concentration of 10^6 cfu/mL.
Outbred female CF1 mice (approx. 20 gram body weight) were rendered neutropenic by treatment with cyclophosphamide (200 mg/kg body weight, intraperitoneal injection) at 2 and 4 days prior to inoculation. Groups of 5 mice were inoculated with 0.05 mL of the bacteria (approx. 10^6 cfu/mL) into the anterior thigh. Each group was treated intravenously two hours post infection with vehicle (phosphate buffered saline) or test compound. The mice were sacrificed at either 6 or 24 hrs after treatment and thighs were collected aseptically. Each thigh was weighed, placed into sterile saline, and homogenized. The tissue homogenates were diluted appropriately for plating on agar plates. Colony counts were recorded (cfu/gram) and compared to control groups.

[6] = 50 mg/kg intravenously two hours post infection

| Compound | Kd [2] [nM] | Minimum Inhibitory Concentration (MIC) (B. cereus ATCC 11778) | Minimum Inhibitory Concentration (MIC) (C. albicans ATCC 38247) | Minimum Inhibitory Concentration (MIC) (E. faecalis ATCC 29212) | Minimum Inhibitory Concentration (MIC) (E. faecium ATCC 51559) | Minimum Inhibitory Concentration (MIC) (S. aureus ATCC 13709) | Minimum Inhibitory Concentration (MIC) (S. aureus ATCC 27660) | Minimum Inhibitory Concentration (MIC) [1] | Minimum Inhibitory Concentration (MIC) (S. pneumoniae ATCC 49619) | Minimum Inhibitory Concentration (MIC) (S. pneumoniae ATCC 51422) | Colony Count (log cfu/gram), Compound [5, 6] [log cfu/gram] | other results |
| --- | --- | --- | --- | --- | --- | --- | --- | --- | --- | --- | --- | --- |
| Cn1cc(NC(=O)c2cc3ccccc3cn2)cc1C(=O)Nc1cc(C(=O)Nc2cc(C(=O)NCCN3CCOCC3)n(CCN3CCOCC3)c2)n(C)c1 [Ib-56] | < 100 | – | – | – | – | – | – | – | – | – | – | MIC (B. cereus ATCC 11778): < 4 µg/mL; MIC (C. albicans ATCC 38247): > 32 µg/mL; MIC (E. faecalis ATCC 29212): < 4 µg/mL; MIC (E. faecium ATCC 51559; Enterococcus faecium, read-out: Minimum Inhibitory Concentration (MIC)): 4 to 12 µg/mL (≈ 5.33 to 16 µM); MIC (S. aureus ATCC 13709): < 4 µg/mL; MIC (S. aureus ATCC 27660; Staphylococcus aureus, read-out: Minimum Inhibitory Concentration (MIC)): < 4 µg/mL; MIC ([1]; Staphylococcus epidermidis, ATCC12228, read-out: Minimum Inhibitory Concentration (MIC)): < 4 µg/mL; MIC (S. pneumoniae ATCC 49619): < 4 µg/mL; MIC (S. pneumoniae ATCC 51422; Streptococcus pneumoniae, read-out: Minimum Inhibitory Concentration (MIC)): < 4 µg/mL; Kd [3]: 5 nM |
| Cn1cc(NC(=O)c2cc3ccccc3cn2)cc1C(=O)Nc1cc(C(=O)Nc2cc(C(=O)NCCN3CCCCC3)ns2)n(C)c1 [Ib-59] | 50 | +++ (+++ = MIC ≦ 4) | >32 µg/mL | +++ (+++ = MIC ≦ 4) | +++ (+++ = MIC ≦ 4) | +++ (+++ = MIC ≦ 4) | +++ (+++ = MIC ≦ 4) | +++ (+++ = MIC ≦ 4) | +++ (+++ = MIC ≦ 4) | +++ (+++ = MIC ≦ 4) | – | Kd [4]: 1 nM |
| Cn1cc(NC(=O)c2cc(NC(=O)c3cc(NC(=O)c4cc5ccccc5cn4)no3)cn2C)cc1C(=O)NCCN1CCOCC1 [Ib-60] | 10 | – | – | – | – | – | – | – | – | – | – | MIC (B. cereus ATCC 11778): < 4 µg/mL; MIC (C. albicans ATCC 38247): > 32 µg/mL; MIC (E. faecalis ATCC 29212): < 4 µg/mL; MIC (S. aureus ATCC 13709): < 4 µg/mL; MIC (S. pneumoniae ATCC 49619): < 4 µg/mL; Kd [3]: 5 nM |
| Cc1cc(NC(=O)c2cc(NC(=O)c3cc(NC(=O)c4cc5ccccc5cn4)cn3C)cn2CCCN(C)C)sn1 [Ib-66] | – | +++ (+++ = MIC ≦ 4) | +++ (+++ = MIC ≦ 4) | +++ (+++ = MIC ≦ 4) | ++ (++ = 4 < MIC < 12) | +++ (+++ = MIC ≦ 4) | +++ (+++ = MIC ≦ 4) | +++ (+++ = MIC ≦ 4) | +++ (+++ = MIC ≦ 4) | +++ (+++ = MIC ≦ 4) | 6.66 | – |
| Cn1cc(NC(=O)c2cc(NC(=O)c3cc(NC(=O)c4cc5ccccc5cn4)cn3C)c[nH]2)cc1C(=O)NCCN1CCOCC1 [Ib-67] | – | +++ (+++ = MIC ≦ 4) | >32 µg/mL | +++ (+++ = MIC ≦ 4) | – | +++ (+++ = MIC ≦ 4) | +++ (+++ = MIC ≦ 4) | – | +++ (+++ = MIC ≦ 4) | – | 5.79 | Colony Count (log cfu/gram), Compound ([5]; 25 mg/kg intravenously two hours post infection): 6.61 log cfu/gram |
| Cn1cc(NC(=O)c2cc3ccccc3cn2)cc1C(=O)Nc1cc(C(=O)Nc2cc(C(=O)NCCN3CCCCC3)n(CCN3CCCCC3)c2)n(C)c1 [Ib-68] | – | +++ (+++ = MIC ≦ 4) | + (+ = 12 ≦ MIC ≦ 32) | +++ (+++ = MIC ≦ 4) | – | +++ (+++ = MIC ≦ 4) | +++ (+++ = MIC ≦ 4) | – | +++ (+++ = MIC ≦ 4) | – | 6.36 | – |
| Cn1cc(NC(=O)c2ccc(NC(=O)c3cc(NC(=O)c4cc5ccccc5cn4)cn3C)cc2)cc1C(=O)NCCN1CCSCC1 [Ic-7] | – | +++ (+++ = MIC ≦ 4) | >32 µg/mL | +++ (+++ = MIC ≦ 4) | +++ (+++ = MIC ≦ 4) | +++ (+++ = MIC ≦ 4) | +++ (+++ = MIC ≦ 4) | +++ (+++ = MIC ≦ 4) | +++ (+++ = MIC ≦ 4) | +++ (+++ = MIC ≦ 4) | – | – |
| Cn1cc(NC(=O)c2ccc(NC(=O)c3cc(NC(=O)c4cc5ccccc5cn4)cn3C)cc2)cc1C(=O)NCCc1ccccn1 [Ic-12] | – | >32 µg/mL | >32 µg/mL | +++ (+++ = MIC ≦ 4) | +++ (+++ = MIC ≦ 4) | +++ (+++ = MIC ≦ 4) | +++ (+++ = MIC ≦ 4) | +++ (+++ = MIC ≦ 4) | +++ (+++ = MIC ≦ 4) | +++ (+++ = MIC ≦ 4) | – | – |
| Cn1cc(NC(=O)c2ccc(NC(=O)c3cc(NC(=O)c4cc5ccccc5cn4)cn3C)cc2)cc1C(=O)NCCN1CCCCC1 [Ic-13] | – | +++ (+++ = MIC ≦ 4) | >32 µg/mL | +++ (+++ = MIC ≦ 4) | +++ (+++ = MIC ≦ 4) | +++ (+++ = MIC ≦ 4) | +++ (+++ = MIC ≦ 4) | +++ (+++ = MIC ≦ 4) | +++ (+++ = MIC ≦ 4) | +++ (+++ = MIC ≦ 4) | – | – |
